Experimental data: article PMC5349656, “Characterization of Hedgehog Acyltransferase Inhibitors Identifies a Small Molecule Probe for Hedgehog Signaling by Cancer Cells” (ACS Chemical Biology, 2016)

Columns and labels:
[1] = molecular target: T1, Hedgehog acyltransferase (Hhat) (Homo sapiens, UniProt Q5VTY9); assay: YnPal palmitoylation profiling in cells by quantitative proteomics; type: cell-based
[2] = molecular target: T1, Hedgehog acyltransferase (Hhat); assay: YnPal palmitoylation tagging in HEK-293 Shh+ cells, spike-in SILAC quantitative proteomics (Western blot TC50 […]); type: cell-based

T1 sequence (Q5VTY9 whole entry): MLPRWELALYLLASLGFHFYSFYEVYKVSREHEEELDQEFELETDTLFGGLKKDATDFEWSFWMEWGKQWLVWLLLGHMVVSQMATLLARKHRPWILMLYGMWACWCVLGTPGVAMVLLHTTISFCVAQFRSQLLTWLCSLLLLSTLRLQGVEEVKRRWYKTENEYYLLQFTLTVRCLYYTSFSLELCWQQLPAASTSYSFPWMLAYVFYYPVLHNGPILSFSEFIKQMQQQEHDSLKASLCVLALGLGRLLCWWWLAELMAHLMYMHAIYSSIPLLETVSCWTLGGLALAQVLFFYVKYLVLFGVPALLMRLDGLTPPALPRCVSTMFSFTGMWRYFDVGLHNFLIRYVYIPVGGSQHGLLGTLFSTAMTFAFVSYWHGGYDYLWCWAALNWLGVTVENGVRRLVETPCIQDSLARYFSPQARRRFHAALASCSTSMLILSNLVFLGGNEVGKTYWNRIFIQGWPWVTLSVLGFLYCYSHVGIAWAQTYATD

SMILES | YnPal palmitoylation profiling in cells by quantitative proteomics [1] | IC50 [2]
C=CCNCC(=O)N1CCc2sccc2C1COc1ccc(Cl)cc1 (centres unmarked) [RUSKI-41] | RUSKI-41 also inhibited only Hh palmitoylation (Supporting Information Figure S6, Table S2) | 
CCC(C)CNCC(=O)N1CCc2sccc2C1c1cccc(C)n1 (racemic) [RUSKI-201] |  | 730 ± 90 nM
